Reference: patent publication US20240002354A1, “ANTIDIABETIC COMPOUNDS AND COMPOSITIONS” (REZUBIO PHARMACEUTICALS CO., LTD, priority 2020, published 2024)

Biological target: T1, GPR40 (Homo sapiens, UniProt O14842)
T1 construct: expressed in transfected cells
Experiment: IP1 accumulation assay (Cisbio IP-One HTRF) in HEK293 cells stably expressing GPR40
Type: cell-based
Details: HEK293 cells stably expressing GPR40, 37° C. for 2 hours, % Effect relative to AMG-1638 positive control
Method: IP1 accumulation assay was used to evaluate the potency of compounds. HEK293 cells stably expressing GPR40 were cultured in 5% CO2 incubator (ThermoFisher) in maintenance media (Dulbecco's modified Eagle's medium with 4.5 g/L of glucose, 10% fetal bovine serum, 100 μg/mL Hygromycin, and Penicillin (100 U/mL)/Streptomycin (100 μg/mL)) till 100% confluency. Cells were harvested freshly, spun down at 300×g for 5 min, and resuspended in pre-warmed 1× stimulant buffer from Cisbio IP-One HTRF Detection kit (Cisbio). Cell density was adjusted to 2.0×10^6 cells/mL. DMSO was used as blank control and AMG-1638 (CAS #: 1142214-62-7) as positive control. Compounds were prepared at 10 mM in DMSO and 5 nL of 3× serially diluted compounds (10 concentrations) were added to each well of the 384-LDV assay plate (Corning) by using ECHO 550 (Labcyte). Five μL of cells in suspension were transferred into each well by using Multidrop Combi Reagent Dispenser (ThermoFisher). Assay plate was then sealed and incubated at 37° C. for 2 hours. IP-d2 reagent and anti-IP1 reagent were prepared following the manual (Cisbio). Five μL of IP1-d2 and then 5 μL of anti-IP1 antibody was added to each well sequentially. Assay plate was incubated at room temperature for 60 min and then read at 665 nm/615 nm on an Envision plate reader (PerkinElmer). The ratio of values obtained at 665 nm and 615 nm was used for calculation of IP1 accumulation: % Effect=(Ratiosample−Ratioblank)/(RatioAMG-1638−Ratioblank)×100. Dose curve was fitted and EC50 of each compound was calculated by using XLFit.

T1 sequence (O14842 whole entry): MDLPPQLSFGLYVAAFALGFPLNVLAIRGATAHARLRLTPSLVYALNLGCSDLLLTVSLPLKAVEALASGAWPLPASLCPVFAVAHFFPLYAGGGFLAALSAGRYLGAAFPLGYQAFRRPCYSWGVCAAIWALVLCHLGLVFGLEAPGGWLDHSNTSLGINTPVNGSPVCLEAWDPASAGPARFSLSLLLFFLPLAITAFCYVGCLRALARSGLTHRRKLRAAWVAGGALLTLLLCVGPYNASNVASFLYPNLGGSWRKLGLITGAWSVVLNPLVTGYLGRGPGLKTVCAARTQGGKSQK

Molecule | EC50
CCCCCCc1cn(-c2ccc(OC(F)(F)F)c(CN3CCC([C@H]4CCc5ccc([C@H](C6CC6)[C@H](C)C(=O)O)cc5O4)CC3)c2)nn1 [compound 188, (2S,3R)-3-cyclopropyl-3-((R)-2-(1-(5-(4-hexyl-1H-1,2,3-triazol-1-yl)-2-(trifluoro-methoxy)benzyl)piperidin-4-yl)chroman-7-yl)-2-methylpropanoic acid] | 1 to 50 nM
CCCCCCc1cn(CCc2ccc(OC(F)(F)F)c(CN3CCC([C@H]4CCc5ccc([C@H](C6CC6)[C@H](C)C(=O)O)cc5O4)CC3)c2)nn1 [compound 189, (2S,3R)-3-cyclopropyl-3-((R)-2-(1-(5-(2-(4-hexyl-1H-1,2,3-triazol-1-yl)ethyl)-2-(trifluoro-methoxy)benzyl)piperidin-4-yl)chroman-7-yl)-2-methylpropanoic acid] | 1 to 50 nM
COc1ccc(F)c(-c2ccc(COc3cccc([C@@H](CC(=O)O)C4CC4)c3)cc2C(OCCCCCn2cc(CCCCCCCCCCCCCCCCCC(=O)O)nn2)C(C)(C)C)c1 (stereo partly shown) [Compound No. 234] | 250 to 1000 nM
CCCCCCn1cc(COc2ccc(OC(F)(F)F)c(CN3CCC([C@H]4CCc5ccc([C@H](C6CC6)[C@H](C)C(=O)O)cc5O4)CC3)c2)nn1 [compound 190, (2S,3R)-3-cyclopropyl-3-((R)-2-(1-(5-((1-hexyl-1H-1,2,3-triazol-4-yl)methoxy)-2-(trifluoro-methoxy)benzyl)piperidin-4-yl)chroman-7-yl)-2-methylpropanoic acid] | 50 to 250 nM
COc1ccc(F)c(-c2ccc(COc3cccc([C@@H](CC(=O)O)C4CC4)c3)cc2C(C)(C)Cn2cc(CCCCCCCCCCCCCCCCCC(=O)O)nn2)c1 [Compound No. 226, (S)-18-(1-(2-(4-((3-(2-carboxy-1-cyclopropylethyl)phenoxy)methyl)-2′-fluoro-5′-methoxy-[1,1′-biphenyl]-2-yl)-2-methylpropyl)-1H-1,2,3-triazol-4-yl)octadecanoic acid] | 50 to 250 nM
COC(=O)CCCCCCCCCCCCCCCCCc1cn(CC(C)(C)c2cc(COc3cccc([C@@H](CC(=O)O)C4CC4)c3)ccc2-c2cc(OC)ccc2F)nn1 [Compound No. 227, (S)-3-cyclopropyl-3-(3-((2′-fluoro-5′-methoxy-2-(1-(4-(18-methoxy-18-oxooctadecyl)-1H-1,2,3-triazol-1-yl)-2-methylpropan-2-yl)-[1,1′-biphenyl]-4-yl)methoxy)phenyl)propanoic acid] | ≥ 5000 nM
C#CCOCC(C)(C)c1cc(COc2cccc([C@@H](CC(=O)O)C3CC3)c2)ccc1-c1cc(OC)ccc1F [Compound No. 228, (S)-3-cyclopropyl-3-(3-((2′-fluoro-5′-methoxy-2-(2-methyl-1-(prop-2-yn-1-yloxy)propan-2-yl)-[1,1′-biphenyl]-4-yl)methoxy)phenyl)propanoic acid] | 50 to 250 nM
CCCCCCn1cc(COCC(C)(C)c2cc(COc3cccc([C@@H](CC(=O)O)C4CC4)c3)ccc2-c2cc(OC)ccc2F)nn1 [Compound No. 229, (S)-3-cyclopropyl-3-(3-((2′-fluoro-2-(1-((1-hexyl-1H-1,2,3-triazol-4-yl)methoxy)-2-methylpropan-2-yl)-5′-methoxy-[1,1′-biphenyl]-4-yl)methoxy)phenyl) propanoic acid] | 250 to 1000 nM
COc1ccc(F)c(-c2ccc(COc3cccc([C@@H](CC(=O)O)C4CC4)c3)cc2C(C)(C)N=[N+]=[N-])c1 [Compound No. 216, (S)-3-(3-((2-(2-azidopropan-2-yl)-2′-fluoro-5′-methoxy-[1,1′-biphenyl]-4-yl)methoxy)phenyl)-3-cyclopropylpropanoic acid] | 1 to 50 nM
C#CCOc1cc(COc2cccc([C@H](CC)CC(=O)O)c2)ccc1-c1cc(OC)ccc1F [Compound No. 211] | 1000 to 5000 nM
CCCCCCc1cn(C(C)(C)c2cc(COc3cccc([C@@H](CC(=O)O)C4CC4)c3)ccc2-c2cc(OC)ccc2F)nn1 [Compound No. 218, (S)-3-cyclopropyl-3-(3-((2′-fluoro-2-(2-(4-hexyl-1H-1,2,3-triazol-1-yl)propan-2-yl)-5′-methoxy-[1,1′-biphenyl]-4-yl)methoxy)phenyl)propanoic acid] | 250 to 1000 nM
CCCCCCc1cn(CCCCCOC(c2cc(COc3cccc([C@@H](CC(=O)O)C4CC4)c3)ccc2-c2cc(OC)ccc2F)C(C)(C)C)nn1 (stereo partly shown) [Compound No. 233] | 1 to 50 nM
C[C@H](C(=O)O)[C@H](c1ccc2c(c1)O[C@@H](C1CCN(Cc3cc(-c4cn(CCCCCCCCCCCCCCCCCC(=O)OCc5ccccc5)nn4)ccc3OC(F)(F)F)CC1)CC2)C1CC1 [compound 210, (2S,3R)-3-((R)-2-(1-(5-(1-(18-(benzyloxy)-18-oxooctadecyl)-1H-1,2,3-triazol-4-yl)-2-(trifluoromethoxy)benzyl)piperidin-4-yl)chroman-7-yl)-3-cyclopropyl-2-methylpropanoic acid] | 50 to 250 nM
COc1ccc(F)c(-c2ccc(COc3cccc([C@@H](CC(=O)O)C4CC4)c3)cc2C(OC)C(C)(C)CN=[N+]=[N-])c1 (stereo partly drawn) [Compound No. 236, (3S)-3-(3-((2-(3-azido-1-methoxy-2,2-dimethylpropyl)-2′-fluoro-5′-methoxy-[1,1′-biphenyl]-4-yl)methoxy)phenyl)-3-cyclopropylpropanoic acid] | 1 to 50 nM
CC[C@H](CC(=O)O)c1cccc(OCc2ccc(-c3cc(OC)ccc3F)c(OCc3cn(CCCCCCCCCCCCCCCCCC(=O)O)nn3)c2)c1 [Compound No. 212] | ≥ 5000 nM
CCCCCCc1cn(Cc2ccc(OC(F)(F)F)c(CN3CCC([C@H]4CCc5ccc([C@H](C6CC6)[C@H](C)C(=O)O)cc5O4)CC3)c2)nn1 [compound 195, (2S,3R)-3-cyclopropyl-3-((R)-2-(1-(5-((4-hexyl-1H-1,2,3-triazol-1-yl)methyl)-2-(trifluoro-methoxy)benzyl)piperidin-4-yl)chroman-7-yl)-2-methylpropanoic acid] | 1 to 50 nM
COC(=O)CCCCCCCCCCCCCCCCCc1cn(CCCCCOC(c2cc(COc3cccc([C@@H](CC(=O)O)C4CC4)c3)ccc2-c2cc(OC)ccc2F)C(C)(C)C)nn1 (stereo partly shown) [Compound No. 235] | ≥ 5000 nM
(2S,2'S,3R,3′R)-3,3′-((2R,2′R)-2,2′-(1,1′-(((1,1′-(26-(2-(bis(3-((2-aminoethyl)amino)-3-oxopropyl)amino) ethyl)-18,23,29,34-tetraoxo-19,22,26,30,33-pentaazahenpentacontane-1,51-diyl)bis(1H-1,2,3-triazole-4,1-diyl))bis(2-(trifluoromethoxy)-5,1-phenylene))bis(methylene))bis (piperidine-4,1-diyl))bis(chroman-7,2-diyl))bis(3-cyclopropyl-2-methylpropanoic acid) [compound 203] | 50 to 250 nM
CCCCCCc1cn(Cc2cc3ccc(OC)c(CN4CCC([C@H]5CCc6ccc([C@H](C7CC7)[C@H](C)C(=O)O)cc6O5)CC4)c3o2)nn1 [compound 209, (2S,3R)-3-cyclopropyl-3-((R)-2-(1-((2-((4-hexyl-1H-1,2,3-triazol-1-yl)methyl)-6-methoxybenzofuran-7-yl)methyl)piperidin-4-yl)chroman-7-yl)-2-methylpropanoic acid] | 1000 to 5000 nM
C[C@H](C(=O)O)[C@H](c1ccc2c(c1)O[C@@H](C1CCN(Cc3cc(CN=[N+]=[N-])ccc3OC(F)(F)F)CC1)CC2)C1CC1 [Compound 201] | 1 to 50 nM
CCCCCCn1cc(C(C)(C)c2cc(COc3cccc([C@@H](CC(=O)O)C4CC4)c3)ccc2-c2cc(OC)ccc2F)nn1 [Compound No. 219, (S)-3-cyclopropyl-3-(3-{2′-fluoro-2-[1-(1-hexyl-1H-[1,2,3]triazol-4-yl)-1-methyl-ethyl]-5′-methoxy-biphenyl-4-ylmethoxy}-phenyl)-propionic acid] | 250 to 1000 nM
CCCCCCn1cc(-c2ccc(OC(F)(F)F)c(CN3CCC([C@H]4CCc5ccc([C@H](C6CC6)[C@H](C)C(=O)O)cc5O4)CC3)c2)nn1 [compound 187, (2S,3R)-3-cyclopropyl-3-((R)-2-(1-(5-(1-hexyl-1H-1,2,3-triazol-4-yl)-2-(trifluoro-methoxy)benzyl)piperidin-4-yl)chroman-7-yl)-2-methylpropanoic acid] | 50 to 250 nM
C#CC(C)(C)c1cc(COc2cccc([C@@H](CC(=O)O)C3CC3)c2)ccc1-c1cc(OC)ccc1F [Compound No. 217, (S)-3-cyclopropyl-3-(3-((2′-fluoro-5′-methoxy-2-(2-methylbut-3-yn-2-yl)-[1,1′-biphenyl]-4-yl)methoxy)phenyl)propanoic acid] | 1 to 50 nM
CCCCCCc1cn(CC(C)(C)c2cc(COc3cccc([C@@H](CC(=O)O)C4CC4)c3)ccc2-c2cc(OC)ccc2F)nn1 [Compound No. 225, (S)-3-cyclopropyl-3-(3-{2′-fluoro-2-[2-(4-hexyl-[1,2,3]triazol-1-yl)-1,1-dimethyl-ethyl]-5′-methoxy-biphenyl-4-ylmethoxy}-phenyl)-propionic acid] | 50 to 250 nM
C#Cc1ccc(OC(F)(F)F)c(CN2CCC([C@H]3CCc4ccc([C@H](C5CC5)[C@H](C)C(=O)O)cc4O3)CC2)c1 [compound 193, (2S,3R)-3-cyclopropyl-3-((R)-2-(1-(5-ethynyl-2-(trifluoromethoxy)benzyl)piperidin-4-yl)-chroman-7-yl)-2-methylpropanoic acid] | 1 to 50 nM
